This passage reports caspase activation (% of PBS control) results from the OligoGym collection.

The series deals with HIF1A. Put plainly: HeLa, 100 nM transfected, 24 h, mean of 3. As to conditions: ASO.

Bases are written 5' to 3'; sugars and linkages follow in the same order, as letters with counts (s phosphorothioate, o phosphodiester; PS: all linkages phosphorothioate). C may stand for cytosine or 5-methylcytosine; the collection does not tell. l = locked nucleic acid (LNA); d = 2'-deoxy (DNA)

As for “GTTACTGCCTTCTTAC (sugars l3 d8 l1 d2 l2, PS)”, the caspase activation (% of PBS control) was found to be 204.
“TGGCAAGCATCCTGTA (sugars l2 d9 l2 d2 l1, PS)” had a caspase activation (% of PBS control) of 422.
Next, “GTTACTGCCTTCTTAC (sugars lddlddddddddlddl, PS)”: 112; “TGGCAAGCATCCTGTA (sugars l2 d9 l1 d2 l2, PS)”: 424; GCAAGCATCCTGT (sugars l1 d10 l2, PS): 112.
Next, “TGGCAAGCATCCTGTA (sugars ldddlddddddldddl, PS)”: 159; “TGGCAAGCATCCTGTA (sugars lddldddddddddldl, PS)”: 200; “GTTACTGCCTTCTTAC (sugars ldllddddddddldll, PS)”: 181.
Then “TGGCAAGCATCCTGTA (sugars l1 d1 l3 d9 l2, PS)”, with 463.
In the case of “TGGCAAGCATCCT (sugars ldldddddddldl, PS)”, the caspase activation (% of PBS control) stood at 170.
Then “TGGCAAGCATCCTGTA (sugars ldldlddddddlllll, PS)”, with 342.
“GTTACTGCCTTCTTAC (sugars lddldddddddldldl, PS)” yielded a caspase activation (% of PBS control) of 135.
As to “GTTACTGCCTTCTTAC (sugars ldlldddddddlldll, PS)”, the caspase activation (% of PBS control) stood at 218.
The sequence “GTTACTGCCTTCTTAC (sugars ldlddddddddldlll, PS)” showed a caspase activation (% of PBS control) of 155.
Regarding “TGGCAAGCATCCTGTA (sugars lllddddddddldldl, PS)”, the caspase activation (% of PBS control) worked out at 385.
Then “TGGCAAGCATCCTGTA (sugars l1 d1 l2 d7 l5, PS)”, with 415.
Sequence “GTTACTGCCTTCTTAC (sugars ldlldddddddldddl, PS)” yielded a caspase activation (% of PBS control) of 213.
Turning to “TGGCAAGCATCCTGTA (sugars ldllddddddddlddl, PS)”, the caspase activation (% of PBS control) amounted to 438.
“TGGCAAGCATCCTGTA (sugars l1 d11 l1 d2 l1, PS)”: the caspase activation (% of PBS control) amounted to 190.
Next, “GTTACTGCCTTCTTAC (sugars lldddddddddldldl, PS)”: 144; “ACTGCCTTCTTAC (sugars l1 d2 l1 d6 l3, PS)”: 126.
Then “GTTACTGCCTTCTTAC (sugars lddllddddddlldll, PS)”, with 196; and “GTTACTGCCTTCTTAC (sugars llddldddddddlddl, PS)”, with 197; and “TTACTGCCTTCTT (sugars l4 d6 l1 d1 l1, PS)”, with 308.
Next, “GGCAAGCATCCTG (sugars l1 d1 l1 d8 l2, PS)”: 685; TACTGCCTTCTTA (sugars l4 d6 l3, PS): 404.
In the case of “GTTACTGCCTTCTTAC (sugars ldlldddddddldlll, PS)”, the caspase activation (% of PBS control) was 195.
For “TGGCAAGCATCCTGTA (sugars l2 d2 l1 d6 l5, PS)”, the caspase activation (% of PBS control) was determined as 432.
Then TACTGCCTTCTTA (sugars l1 d11 l1, PS), with 112; and GTTACTGCCTTCTTAC (sugars l3 d9 l4, PS), with 165.
As to “TGGCAAGCATCCTGTA (sugars lddlldddddddlldl, PS)”, the caspase activation (% of PBS control) stood at 409.
Next, “TGGCAAGCATCCTGTA (sugars lddlldddddddlddl, PS)”: 461.
In turn, “TGGCAAGCATCCTGTA (sugars l3 d9 l1 d1 l2, PS)” registered a caspase activation (% of PBS control) of 416.
As for “TGGCAAGCATCCT (sugars l3 d7 l1 d1 l1, PS)”, the caspase activation (% of PBS control) is 268.
For “TGGCAAGCATCCTGTA (sugars ldldldddddddddll, PS)”, the caspase activation (% of PBS control) worked out at 210.
The sequence “TGGCAAGCATCCTGTA (sugars ldlddddddddllldl, PS)” showed a caspase activation (% of PBS control) of 254.
On to “TGGCAAGCATCCTGTA (sugars l2 d1 l1 d7 l5, PS)”, for which the caspase activation (% of PBS control) was 427.
Next, CAAGCATCCTGTA (sugars l1 d9 l3, PS): 135; “TGGCAAGCATCCTGTA (sugars l3 d9 l2 d1 l1, PS)”: 634; CAAGCATCCTGTA (sugars l1 d11 l1, PS): 100.
Then “TGGCAAGCATCCTGTA (sugars lddldddddddllldl, PS)”, with 394; and “CAAGCATCCTGTA (sugars lddlddddddldl, PS)”, with 100.
Next, “TGGCAAGCATCCTGTA (sugars llldldddddddlddl, PS)”: 341.
“TGGCAAGCATCCTGTA (sugars l2 d1 l2 d8 l3, PS)” came in with a caspase activation (% of PBS control) of 407.
The sequence “TGGCAAGCATCCT (sugars l1 d2 l1 d7 l2, PS)” came in with a caspase activation (% of PBS control) of 157.
Take GTTACTGCCTTCT (sugars l2 d10 l1, PS): the caspase activation (% of PBS control) came out at 109.
Turning to GCAAGCATCCTGT (sugars l2 d9 l2, PS), the caspase activation (% of PBS control) turned out to be 285.
Next, “GTTACTGCCTTCTTAC (sugars ldldldddddddldll, PS)”: 214.
Next, “GTTACTGCCTTCTTAC (sugars ldlddddddddddldl, PS)”: 119.
Next, “TTACTGCCTTCTT (sugars l1 d1 l1 d9 l1, PS)”: 117; “GTTACTGCCTTCTTAC (sugars l1 d1 l1 d10 l3, PS)”: 109.
For TGGCAAGCATCCTGTA (sugars l4 d7 l5, PS), the caspase activation (% of PBS control) amounted to 414.
As to “TGGCAAGCATCCTGTA (sugars ldlldddddddldlll, PS)”, the caspase activation (% of PBS control) is 435.
Turning to TGGCAAGCATCCTGTA (sugars l1 d13 l2, PS), the caspase activation (% of PBS control) was determined as 170.
Then “TGGCAAGCATCCTGTA (sugars llldlddddddllldl, PS)”, with 413; and “TGGCAAGCATCCTGTA (sugars ldlddddddddlldll, PS)”, with 227; and “TGGCAAGCATCCTGTA (sugars llldlddddddddldl, PS)”, with 350.
On to “TTACTGCCTTCTT (sugars l2 d1 l1 d7 l2, PS)”, for which the caspase activation (% of PBS control) turned out to be 202.
“GTTACTGCCTTCTTAC (sugars l5 d7 l1 d2 l1, PS)” gave a caspase activation (% of PBS control) of 446.
Next, “GTTACTGCCTTCTTAC (sugars ldlllddddddllldl, PS)”: 639; “TGGCAAGCATCCTGTA (sugars lldllddddddllldl, PS)”: 474; “TGGCAAGCATCCTGTA (sugars lldldddddddddldl, PS)”: 522.
As to “GTTACTGCCTTCTTAC (sugars l1 d1 l2 d8 l4, PS)”, the caspase activation (% of PBS control) was determined as 200.
Next, “TGGCAAGCATCCTGTA (sugars l5 d6 l1 d3 l1, PS)”: 371.
Next, “TACTGCCTTCTTA (sugars ldldddddddldl, PS)”: 237.
Then GTTACTGCCTTCTTAC (sugars l2 d10 l4, PS), with 151.
The sequence “TGGCAAGCATCCTGTA (sugars ldllldddddddlddl, PS)” returned a caspase activation (% of PBS control) of 419.
Then “GTTACTGCCTTCTTAC (sugars l2 d2 l1 d10 l1, PS)”, with 158; and “GCAAGCATCCTGT (sugars l1 d2 l1 d7 l2, PS)”, with 151.
“GTTACTGCCTTCT (sugars l2 d1 l1 d7 l2, PS)” yielded a caspase activation (% of PBS control) of 134.
Then “CAAGCATCCTGTA (sugars ldldddddddldl, PS)”, with 136; and GGCAAGCATCCTG (sugars l2 d10 l1, PS), with 291; and TGGCAAGCATCCT (sugars l2 d9 l2, PS), with 434.
Then GTTACTGCCTTCT (sugars l1 d10 l2, PS), with 127; and “TGGCAAGCATCCTGTA (sugars lddldddddddldldl, PS)”, with 274.
Next, “GTTACTGCCTTCTTAC (sugars lldllddddddldlll, PS)”: 278.
Take “GGCAAGCATCCTG (sugars lddlddddddldl, PS)”: the caspase activation (% of PBS control) was determined as 198.
“GTTACTGCCTTCTTAC (sugars lldldddddddddldl, PS)” gave a caspase activation (% of PBS control) of 138.
Sequence “TACTGCCTTCTTA (sugars l2 d1 l1 d8 l1, PS)” came in with a caspase activation (% of PBS control) of 222.
Sequence “TTACTGCCTTCTT (sugars lddlddddddldl, PS)” gave a caspase activation (% of PBS control) of 127.
Then “GTTACTGCCTTCTTAC (sugars l2 d10 l1 d1 l2, PS)”, with 128; and “GTTACTGCCTTCTTAC (sugars l1 d2 l1 d7 l5, PS)”, with 268.
Next, “GCAAGCATCCTGT (sugars l1 d1 l1 d9 l1, PS)”: 165.
Then ACTGCCTTCTTAC (sugars l4 d7 l2, PS), with 406.
In turn, “TGGCAAGCATCCTGTA (sugars ldddlddddddddldl, PS)” displayed a caspase activation (% of PBS control) of 139.
Turning to “TGGCAAGCATCCTGTA (sugars ldldlddddddldddl, PS)”, the caspase activation (% of PBS control) is 179.
“GTTACTGCCTTCT (sugars ldldddddddldl, PS)” had a caspase activation (% of PBS control) of 108.
Turning to “TGGCAAGCATCCT (sugars lldlddddddldl, PS)”, the caspase activation (% of PBS control) came out at 369.
Next, “GTTACTGCCTTCTTAC (sugars llddldddddddldll, PS)”: 218.
